Assay results published in publication PMC9455983 (International Journal of Molecular Sciences, 2022).
“Also recorded” adds a separate entry of the source. Where two headings read alike, the source gives them in different places.

How the values were obtained:
[1] = system: C57BL/6J mice; assay: 55 °C warm-water tail-withdrawal assay (antinociception); assay type: in vivo, mouse
Method: For intracerebroventricular (i.c.v.) administration, the 1968-series compounds were dissolved in dimethyl sulfoxide (DMSO), followed by the addition of sterile saline (0.9%) so that the final vehicle was 50% DMSO and 50% saline, and the i.c.v. injections were performed as described previously. For per os (p.o.) administration, 1968-4 and 1968-22 were administered in 10% Ethanol/10%Tween-80/80% 0.9% saline. All solutions for animal administration were prepared fresh daily.
Antinociception was calculated according to the following formula: % antinociception = 100 × (test latency − control latency)/(15 − control latency). Tail-withdrawal data points are the means of 8–16 mice, unless otherwise indicated, with SEM shown by error bars.
All dose–response lines were analyzed by regression, and ED50 (effective dose producing 50% antinociception) values and 95% confidence intervals (C.I.) were determined using individual data points from graded dose–response curves with Prism 8.0 software (GraphPad, La Jolla, CA, USA). Percent antinociception was used to determine within group effects and to allow comparison to baseline latency in tail-withdrawal experiments. The statistical significance of differences between ED50 values was determined by evaluation of the ED50 value shift via nonlinear regression modeling with Prism software. Significant differences in behavioral data were analyzed by ANOVA (one-way or two-way with repeated measures (RM), as appropriate). Significant results were further analyzed with Sidak’s, Tukey’s, or Dunnett’s multiple comparison post hoc tests, as appropriate. Data for conditioned place preference experiments were analyzed by two-way RM ANOVA, with analyses examining the main effect of the conditioned place preference phase (e.g., pre- or post-conditioning) and the interaction of drug pretreatment. Significant effects were further analyzed using Sidak’s HSD post hoc testing. All data are presented as mean ± SEM, with significance set at p < 0.05.

[2] = system: C57BL/6J mice; assay: Respiration rate in CLAMS/Oxymax system; assay type: in vivo, mouse; details: i.c.v.
Method: Respiration rates (in breaths per minute) and animal locomotive activity (as ambulations) were assessed using the Oxymax/CLAMS system (Columbus Instruments, Columbus, OH), as described previously. Mice were habituated to their individual sealed housing chambers for 60 min before testing. Mice were administered 1968-22 (0.3–100 nmol, i.c.v.), morphine (100 nmol, i.c.v.), or vehicle, as indicated, and five min later confined to the CLAMS testing chambers. Pressure monitoring within the sealed chambers measured frequency of respiration. Infrared beams located in the floor measured locomotion as number of beam breaks. Respiration and locomotive data were averaged over 20 min periods for 120 min post-injection of the test compound. Data are presented as % vehicle response ± SEM, ambulation or breaths per minute.

[3] = biological target: T1, mu-opioid receptor (MOR) (Rattus norvegicus, UniProt P33535); assay: MOR radioligand competition binding assay ([3H]-DAMGO); details: Mu screening results
T1 construct: Rat cortices were homogenized using 50 mM Tris, pH 7.4, and centrifuged at 16,500 rpm for 10 min; from tissue; host or cells: rat cortex membranes
Outline: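 Competition for 2 nM [3H]-DAMGO binding was measured in rat cortex membrane suspension (50 mM Tris, pH 7.4, plus 2 mg/mL bovine serum). After filtration through GF/B filters pre-soaked in BSA, filter radioactivity was counted. Data are two duplicate experiments reported as mean ± SD.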

[4] = biological target: T2, kappa-opioid receptor (KOR) (Cavia porcellus, UniProt P41144); assay: KOR radioligand competition binding assay ([3H]U69,593); design: species or system guinea pig; details: Kappa screening results
T2 construct: Guinea pig cortices and cerebella were homogenized using 50 mM Tris, pH 7.4; from tissue; host or cells: guinea pig cortex and cerebellum membranes
Outline: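 Guinea pig cortex and cerebellum homogenates in 50 mM Tris pH 7.4 with 10 mM MgCl2, 2 nM [3H]U69,593, 2 h at 25 °C. Unlabeled U50,488 gave the standard curve and nonspecific binding. Filtration on BSA-soaked GF/B filters, scintillation counting; two replicates, repeated twice, mean ± SD.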

[5] = LC-MS/MS analysis of blood and perfused brain after i.v. administration; assay type: in vivo, mouse
Method: To assess the stability of 1968-22 in plasma and evaluate CNS penetration, blood and perfused brains were collected from mice 5, 15, and 30 min after (i.v.) administration of the bis-cyclic guanidine (10 mg/kg, i.v.).
Figure 5 LC-MS/MS analysis of 1968-22 ([…].) in blood and brain samples isolated from treated mice over 30 min. Control mice received vehicle (10% Ethanol/10%Tween-80/80% 0.9% saline) and were harvested immediately. Points are mean AUC ± SEM for the summed ion extracted chromatographs of 1968-22 from three mice/time points.

[6] = system: C57BL/6J mice; assay: Opioid receptor involvement in antinociception (antagonist pretreatment, tail-withdrawal assay); assay type: in vivo, mouse
Method: Pretreatment of mice with the opioid antagonist naloxone (10 mg/kg, s.c., −15 min) was used to assess receptor contribution to the observed antinociception induced by maximal tested doses of each 1968-series compound tested.
The opioid receptor involvement in the agonist activity of the heterocyclic peptidomimetics was determined by pretreating mice with a single dose of β-funaltrexamine (β-FNA, 10 mg/kg, i.p.) or nor-BNI (10 mg/kg, i.p.) 24 h in advance of administration of a dose of 1968-series compound.

[7] = system: C57BL/6J mice; assay: Acute antinociceptive tolerance determination; details: i.c.v.
[8] = experiment 1, unit inferred, read-out: Ki (Exp 1)
[9] = experiment 2, unit inferred, read-out: Ki (Exp 2)
[10] = mean of two experiments, read-out: Ki

Cc1cc(O)cc(C)c1C[C@H]1CN([C@@H](Cc2c(C)cc(O)cc2C)CN2C(=N)NC[C@@H]2C)C(=N)N1 [1968-22]
antinociception after oral administration (in words) ([1]; 10 mg/kg, p.o.): significant antinociception
time of peak antinociception after i.c.v. administration ([1]; i.c.v.): 20 min
ED50 (and 95% Confidence Interval (C.I.)) Values, i.c.v. (nmol) ([1]; i.c.v., antinociception at peak response, mice, * ED50 estimated where maximum antinociception not achieved): 0.011 (0.005–0.026) nmol
duration of significant antinociception ([1]; i.c.v., maximum doses tested): 70 min
effect on respiration rate vs vehicle ([2]; 100 nmol): increases in respiration rates
effect on respiration rate vs vehicle ([2]; 0.3, 1 or 10 nmol): did not have any significant effect
Ki [3, 8]: 7.68 nM
Ki [3, 9]: 7.31 nM
Ki ([3]; mean of Exp 1 and Exp 2, unit inferred, read-out: MEAN (Ki)): 7.49 nM
Ki [3, 10]: 7 nM
Ki [4, 8]: 195 nM
Ki [4, 9]: 242 nM
Ki [4, 10]: 218 nM
time detectable / stable in blood after i.v. administration ([5]; 10 mg/kg): at least 30 min
levels in perfused brain by LC-MS/MS ([5]; 10 mg/kg, 5, 15 and 30 min): negligible levels
detection in serum by LC-MS/MS ([5]; 10 mg/kg, within 5 min of administration): readily detected
effect of naloxone pretreatment on antinociception ([6]; naloxone 10 mg/kg, s.c., −15 min, maximal tested i.c.v. dose of compound): most susceptible to antagonism by naloxone; also recorded: blocked fully
effect of naltrindole (DOR antagonist) pretreatment on antinociception ([6]; naltrindole 20 mg/kg, i.p., −20 min, 1968-16 30 nmol or 1968-22 0.3 nmol, i.c.v.): significantly antagonized
effect of nor-BNI (KOR antagonist) pretreatment on antinociception ([6]; nor-BNI 10 mg/kg, i.p., −24 h, 1968-16 30 nmol or 1968-22 0.3 nmol, i.c.v.): significantly antagonized
effect of β-FNA (MOR antagonist) pretreatment on antinociception ([6]; β-FNA 10 mg/kg, i.p., −24 h, 1968-16 30 nmol or 1968-22 0.3 nmol, i.c.v.): significantly antagonized
acute antinociceptive tolerance (in words) [7]: significant tolerance
ED50 (95% C.I.) of second dose at 8 h ([7]; after ED50 pretreatment at 0 h): 0.18 (0.09–0.32) nmol
